Experimental data published in the supplement of paper PMC2824726.

Test system: MDA-MB-231
Test: shRNA barcode abundance ratio t_end/t_zero (depletion over 4 weeks of proliferation) (log2 ratio); higher = less depletion (weaker anti-proliferative effect of the shRNA)
Conditions: time after t zero 28 days
How it was run: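 Cells of the MDA-MB-231 line were transduced with a pooled lentiviral shRNA library at an MOI of 0.3 and selected in 0.5 μg/ml puromycin, and genomic DNA was collected from three biological replicates at 5 days (t_zero) and 33 days post-infection. The barcodes were amplified by PCR, labelled with biotin and hybridised for 16 h at 45°C to Geniom One tiling arrays carrying six 25-nt probes per barcode, then detected with streptavidin phycoerythrin. For the abundance ratio, each t_end/t_zero signal ratio is normalised to the subarray median and averaged over background-filtered probes. This average is taken on a log2 scale.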

| Sequence | shRNA barcode abundance ratio t end/t zero (log2) |
| --- | --- |
| GGCCCAGTGTTTCTTCTGCTT (targeted gene: BIRC5) | -0.948 |
| GGCCCATACCTTCAAATATTA (targeted gene: NFKB1) | 0.381 |
| GGCCTGACAATGGTACCTATT (targeted gene: HDAC3) | -1.93 |
| GGCCTTGGAACTGATGAAGAT (targeted gene: ANXA1) | 0.259 |
| GGCTACAGCCTCGATTTATAT (targeted gene: IGFBP3) | 0.0568 |
| GGCTACTATGACCAATAGAAG (targeted gene: BFAR) | 0.107 |
| GGCTAGACTTAGATTCATTAA (targeted gene: VHL) | 0.486 |
| GGCTTTACTCCGTAACAGATT (targeted gene: RHOA) | -2.14 |
| GGCTTTGTCTTTACAGGTAAA (targeted gene: NAIP) | 0.603 |
| GGGAATCCAGTGTGTGAAGAA (targeted gene: RELA) | 0.121 |
| GGGAATGATCAGATTCCTTTA (targeted gene: BFAR) | 0.171 |
| GGGAGGTAAATCAACATATAT (targeted gene: MSH2) | 0.109 |
| GGGCAAGTTTCCATCATCTAT (targeted gene: TDGF1) | -0.11 |
| GGGCATTTGAGAAATGCATAT (targeted gene: IL7) | 0.11 |
| GGGTAGAAATTGGCTTCATAA (targeted gene: WRN) | -0.246 |
| GGTAAAGATGGCAAACAATAT (targeted gene: IL7) | 0.391 |
| GGTAGCAATTGCCTGAATAAT (targeted gene: IL7) | -0.149 |
| GGTATTCTCATCAAGAAACTT (targeted gene: BCL2A1) | 0.349 |
| GGTCACTTTGTATATAGAATT (targeted gene: HBXIP) | 0.371 |

| Sequence | shRNA barcode abundance ratio t end/t zero (log2) |
| --- | --- |
| GGTCTCCTTAGGGAACATAAA (targeted gene: ATM) | -0.27 |
| GGTCTTACTGAAGTAACACAA (targeted gene: TAX1BP1) | 0.346 |
| GGTGAAGATATATTCCTCCAA (targeted gene: PTEN) | 0.129 |
| GGTGACTATACAGTCATTTAA (targeted gene: ATM) | -0.167 |
| GGTGCCTTGAGGAATACAGAA (targeted gene: NT5C3) | 0.235 |
| GGTGTCTTTACCAAACTTATT (targeted gene: HSPA9) | -0.751 |
| GGTTTGTGCCTTACATTATTA (targeted gene: PSEN1) | -1.92 |
| TACTGTCTTTGAGAACTATAT (targeted gene: RHOC) | 0.0813 |
| TCAAATTGCGGCACATGTCAT (targeted gene: CD40LG) | -0.0903 |
| TCAATCAAAGGGAAACTTGAA (targeted gene: TPT1) | -0.105 |
| TCACACTGGTTCTCAATGAAA (targeted gene: BAG1) | 0.198 |
| TCACAGAGCTTTGTAAGCAAA (targeted gene: NME5) | 0.139 |
| TCAGGAAATGTTATCAGCAAA (targeted gene: BNIP2) | 0.477 |
| TCCAATTAACTTCTCCATAAT (targeted gene: MTL5) | 0.712 |
| TCTCTTAAAGTTGATATCTTA (targeted gene: TNFAIP3) | 0.213 |
| TCTGAGGAAGAGATCATCAAA (targeted gene: PEA15) | -0.849 |
| TGGGAAGAACTTTAAGGATAT (targeted gene: SORT1) | -0.167 |
| TGTTAACAAATGTGGCAATTA (targeted gene: TPT1) | 0.164 |
